# According to ChEMBL document CHEMBL5550126, “Identification of naphthalimide-derivatives as novel PBD-targeted polo-like kinase 1 inhibitors with efficacy in drug-resistant lung cancer cells” (Eur J Med Chem, 2024):
# Active and inactive are the calls of the source. No cut-off for these calls is given here.
# What was measured:
# A549/CDDP [1] = experiment: Antitumor activity against human A549/DDP cells assessed as male BALB/c nude mouse assessed as tumor growth inhibition at 30 mg/kg, ip administered every 2 days for 32 days and measured 3 times a week relative to control; assay type: functional; conditions: 768 h, time 32 day, read-out: TGI
# A549 [2] = experiment: Induction of mitotic catastrophe in human A549 cells assessed as downregulation of CDK1-cyclin B1 complex protein expression at 1.5 to 6 uM measured after 48 hrs by Western blot analysis; assay type: functional, cell-based; conditions: dose 1.5-6 µM
# A549/CDDP [3] = experiment: Antitumor activity against human A549/DDP cells assessed as male BALB/c nude mouse assessed as increase in survival time at 30 to 50 mg/kg, ip administered every 2 days for 32 days; assay type: functional, organism-based; conditions: dose 30-50 mg/kg, time 32.0 day
# A549/CDDP [4] = experiment: Antitumor activity against human A549/DDP cells assessed as male BALB/c nude mouse assessed as reduction in tumor growth at 30 to 50 mg/kg, ip administered every 2 days for 32 days and measured 3 times a week; assay type: functional, organism-based; conditions: dose 30-50 mg/kg, time 32.0 day
# A549/CDDP [5] = experiment: Disruption of redox homeostasis in human A549/DDP cells assessed as reduction in GSH level at 0 to 9 uM measured after 48 hrs; assay type: functional, cell-based; conditions: dose 0-9 µM
# [6] = Toxicity in male BALB/c nude mouse xenografted with human A549/DDP cells assessed as change in kidney index at 30 to 50 mg/kg, ip administered every 2 days for 32 days; assay type: organism-based, A549/CDDP; conditions: in vivo, 768 h, dose 30-50 mg/kg, time 32 day
# A549/CDDP [7] = experiment: Antitumor activity against human A549/DDP cells assessed as male BALB/c nude mouse assessed as reduction in cell proliferation by measuring reduction in […] positive cells in tumor at 30 to 50 mg/kg, ip administered every 2 days for 32 days by immunohistochemistry; assay type: functional, organism-based; conditions: dose 30-50 mg/kg, time 32.0 day
# [8] = molecular target: T1, Serine/threonine-protein kinase PLK1 (Homo sapiens, UniProt P53350); experiment: Binding affinity to recombinant PLK1 (unknown origin) assessed as dissociation constant by SPR analysis
# T1 sequence (P53350 whole entry): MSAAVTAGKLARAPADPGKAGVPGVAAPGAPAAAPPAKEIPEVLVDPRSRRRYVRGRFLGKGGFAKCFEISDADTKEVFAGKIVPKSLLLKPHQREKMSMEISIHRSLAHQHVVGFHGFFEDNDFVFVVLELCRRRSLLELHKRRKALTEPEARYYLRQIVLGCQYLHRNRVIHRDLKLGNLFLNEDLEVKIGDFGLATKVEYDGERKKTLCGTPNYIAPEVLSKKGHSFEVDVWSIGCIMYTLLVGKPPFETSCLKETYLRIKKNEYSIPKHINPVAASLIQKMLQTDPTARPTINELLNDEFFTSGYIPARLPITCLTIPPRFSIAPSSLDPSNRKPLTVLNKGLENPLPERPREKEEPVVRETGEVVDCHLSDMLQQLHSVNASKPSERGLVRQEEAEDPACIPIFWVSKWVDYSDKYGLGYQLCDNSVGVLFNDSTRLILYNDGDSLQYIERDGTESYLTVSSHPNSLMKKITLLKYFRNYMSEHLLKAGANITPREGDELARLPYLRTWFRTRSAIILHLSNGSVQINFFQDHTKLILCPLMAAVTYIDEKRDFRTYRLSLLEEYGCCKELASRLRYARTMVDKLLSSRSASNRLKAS
# A549/CDDP [9] = experiment: Induction of cell cycle arrest at G2/M phase in human A549/DDP cells at 0 to 15 uM measured after 48 hrs by RNase A/PI staining based flow cytometry analysis; assay type: functional; conditions: dose 0-15 µM
# A549 [10] = experiment: Disruption of PLK1-PRC1 protein protein interaction in human A549 cells assessed as reduction in amount of PLK1 captured by PRC1 antibody at 6 uM measured after 48 hrs by Co-IP analysis; assay type: cell-based
# A549/CDDP [11] = experiment: Effect on p-CDK2 protein expression in human A549/DDP cells assessed as effect on protein abundance at 0 to 6 uM measured after 48 hrs by Western blot analysis; assay type: functional, cell-based; conditions: dose 0-6 µM
# A549 [12] = experiment: Induction of mitotic catastrophe in human A549 cells assessed as downregulation of CDC25 protein expression at 1.5 to 6 uM measured after 48 hrs by Western blot analysis; assay type: functional, cell-based; conditions: dose 1.5-6 µM
# [13] = Toxicity in male BALB/c nude mouse xenografted with human gefitinib resistant NCI-H1975 cells assessed as liver damage at 30 mg/kg, po administered every 2 days for 20 days and measured 3 times a week by H and E staining based analysis; assay type: organism-based; conditions: in vivo, 480 h, time 20 day
# A549/CDDP [14] = experiment: Antitumor activity against human A549/DDP cells assessed as male BALB/c nude mouse assessed as tumor growth inhibition at 50 mg/kg, ip administered every 2 days for 32 days and measured 3 times a week relative to control; assay type: functional; conditions: 768 h, time 32 day, read-out: TGI
# [15] = Toxicity in male BALB/c nude mouse xenografted with human A549/DDP cells assessed as change in liver index at 30 to 50 mg/kg, ip administered every 2 days for 32 days; assay type: organism-based, A549/CDDP; conditions: in vivo, 768 h, dose 30-50 mg/kg, time 32 day
# NCI-H460 = experiment: Anticancer activity against human NCI-H460 cells assessed as inhibition of cell growth incubated for 48 hrs by crystal violet staining based analysis; assay type: functional; conditions: NCI-H460, 48 h
# [16] = GSH reactivity of compound in PBS assessed as increase in fluorogenic response at 5 uM measured after 0 to 24 hrs by fluorescence spectrophotometer; assay type: physicochemical; conditions: buffer, time 0-24 hrs
# A549/CDDP [17] = experiment: Anticancer activity against human A549/DDP cells assessed as inhibition of cell growth incubated for 48 hrs by crystal violet staining based analysis; assay type: functional
# [18] = molecular target: T1, Serine/threonine-protein kinase PLK1; experiment: Binding affinity to PLK1 in human A549/DDP cell lysates assessed as thermal stabilization at 20 uM at 44 to 64 degreeC incubated for 2 hrs by CETSA; assay type: subcellular; conditions: Lysate
# [19] = Toxicity in male BALB/c nude mouse xenografted with human A549/DDP cells assessed as kidney damage at 30 to 50 mg/kg, ip administered every 2 days for 32 days by H and E staining based analysis; assay type: organism-based, A549/CDDP; conditions: in vivo, 768 h, dose 30-50 mg/kg, time 32 day
# [20] = molecular target: T1, Serine/threonine-protein kinase PLK1; experiment: Inhibition of PLK1 in human A549/DDP cells assessed as reduction in PLK1 phosphorylation measured after 48 hrs by Western blot analysis; assay type: cell-based
# [21] = Toxicity in male BALB/c nude mouse xenografted with human A549/DDP cells assessed as heart damage at 30 to 50 mg/kg, ip administered every 2 days for 32 days by H and E staining based analysis; assay type: organism-based, A549/CDDP; conditions: in vivo, 768 h, dose 30-50 mg/kg, time 32 day
# [22] = Toxicity in male BALB/c nude mouse xenografted with human gefitinib resistant NCI-H1975 cells assessed as kidney damage at 30 mg/kg, po administered every 2 days for 20 days and measured 3 times a week by H and E staining based analysis; assay type: organism-based; conditions: in vivo, 480 h, time 20 day
# [23] = Toxicity in male BALB/c nude mouse xenografted with human gefitinib resistant NCI-H1975 cells assessed as heart damage at 30 mg/kg, po administered every 2 days for 20 days and measured 3 times a week by H and E staining based analysis; assay type: organism-based; conditions: in vivo, 480 h, time 20 day
# A549 [24] = experiment: Induction of cell cycle arrest at G2/M phase in human A549 cells at 0 to 15 uM measured after 48 hrs by RNase A/PI staining based flow cytometry analysis; assay type: functional; conditions: dose 0-15 µM
# [25] = molecular target: T1, Serine/threonine-protein kinase PLK1; experiment: Inhibition of PLK1 in human A549/DDP cells assessed as reduction in protein abundance measured after 48 hrs by Western blot analysis; assay type: cell-based
compound,measurement,setting,value
CN(C)CCN1C(=O)c2cccc3c(S(=O)(=O)NCc4ccc(F)cc4)ccc(c23)C1=O,inhibition in vivo at 30 mg/kg,A549/CDDP [1],42%
same,Activity,A549 [2],Active
same,Activity,A549/CDDP [3],Active
same,Activity,A549/CDDP [4],Active
same,Activity,A549/CDDP [5],Active
same,Activity,[6],Non-Toxic
same,Activity,A549/CDDP [7],Active
same,Kd,[8],290 nM
same,Activity,A549/CDDP [9],Active
same,Activity,A549 [10],Active
same,Activity,A549/CDDP [11],Active
same,Activity,A549 [12],Active
same,Activity,[13],Non-Toxic
same,inhibition in vivo at 50 mg/kg,A549/CDDP [14],62%
same,Activity,[15],Non-Toxic
same,IC50,NCI-H460,2310 nM
same,Drug metabolism,[16],Metabolite_Detected
same,IC50,A549/CDDP [17],2650 nM
same,Activity,[18],Active
same,Activity,[19],Non-Toxic
same,inhibition,[20],Active
same,Activity,[21],Non-Toxic
same,Activity,[22],Non-Toxic
same,Activity,[23],Non-Toxic
same,Activity,A549 [24],Active
same,inhibition,[25],Active
